{"source": "patent US12252472B1", "about": "“Barbituric acid derivatives, their preparation and use thereof as leukocyte transmigration inhibitors and for treating inflammatory diseases, autoimmune diseases and cancer” (BAR-ILAN UNIVERSITY, priority 2017, dated 2025)", "key": {"[1]": {"tested_on": "C57BL/6J mice", "experiment": "Thioglycollate peritonitis model, leukocyte counting in peritoneal liquid", "assay_type": "in vivo, mouse", "description": "C57BL/6J (The Jackson Laboratory) female mice were chosen for this experiment. The acute inflammation was induced by thioglycollate injection into the abdominal cavity as described by Hoover-Plow J. L. et al. (Strain and model dependent differences in inflammatory cell recruitment in mice. Inflammation Research, 2008. 57(10): p. 457-463).\nMice were injected intraperitoneally with 0.5 mL of 4% thioglycollate (Becton Dickinson, Cockeysville, MD) and after 6 or 72 hours corresponding to peak neutrophil (6 hours) and macrophage (72 hours) recruitment, peritoneal lavage fluid, and cells were harvested as previously described by Ploplis, V. A. et al. (Plasminogen deficiency differentially affects recruitment of inflammatory cell populations in mice. Blood, 1998. 91(6): p. 2005-2009). The number of neutrophils and macrophages (Tang, L. P. and J. W. Eaton, Fibrin (Ogen) Mediates Acute Inflammatory Responses to Biomaterials. Journal of Experimental Medicine, 1993. 178(6): p. 2147-2156) accumulating in the lavage were determined from the enzyme activity of myeloperoxidase for neutrophils (Himmelhoch, S. R., et al., Purification of myeloperoxidases from the bone marrow of the guinea pig. Biochemistry, 1969. 8(3): p. 914-21) and non-specific esterase for macrophage/monocytes (Torres, J. L., R. S. Rush, and A. R. Main, Physical and chemical characterization of a horse serum carboxylesterase. Arch Biochem Biophys, 1988. 267(1): p. 271-9).\nAfter inducing the inflammation (peritonitis), compound of Formula 2 was injected at a concentration of 12.5 mg/kg (DMSO, 01% in PBS, IP), twice (one day after the other). The next day, mice were sacrificed and the peritoneal liquid was collected from the control and treated mice (n=3 for each group). Two assays were conducted for the estimation of the possible anti-inflammatory effect of compound of Formula 2: leukocyte counting (the total amount and the calculation of the percentage of different leukocyte fractions) and a flow cytometry."}, "[2]": {"tested_on": "C57BL/6J mice", "experiment": "MOG35-55/CFA-induced experimental autoimmune encephalomyelitis (EAE)", "assay_type": "in vivo, mouse", "conditions": "15 mg/kg SC q3w", "description": "Female 7-8 weeks old C57BL/6J mice were immunized with an emulsion of MOG35-55 in CFA according to standard protocol, followed by administration of pertussis toxin (PTX) in PBS. After the onset of EAE (9 days), mice were assigned by rolling enrollment to the groups one at a time as they show the first signs of EAE (paralysis score 0.5-1). Treatment group was administered with Formula 2 at 15 mg/kg dose at q3w regiment by SC injections, mock treated (vehicle) control group was administered with similar volume as a treated group. Body weight of animals was determined prior to the experiment and the administered volume of Formula 2 formulation was adjusted according to the body weight. During the experiment, mice body weight and paralysis clinical score was monitored daily.\nMice from all groups were euthanized with isoflurane 24 hours post last dose administration. Two-way ANOVA statistical analysis was performed."}, "[3]": {"tested_on": "DBA/1 mice", "experiment": "Collagen induced arthritis (CIA) model", "assay_type": "in vivo, mouse", "description": "Male DBA/lOlaHsd mice (7-8 weeks of age) were injected with CII (Type II collagen)+CFA (complete Frennd's adjuvant) emulsion on Day 0 (S.C.) to persuade collagen induced arthritis (CIA). On Day 21 the animals receive the same amount of the emulsion as a booster. Twice between Days 0 and 18 after immunization (before enrollment begins), both hind paws of all mice were measured using calipers to establish baseline values for paw thickness. On Day 22 mice were enrolled into groups when they first shown paw swelling and treatment was initiated. A working formulation of compound of Formula 2 was administered by IP injections at 15 mg/kg dose at q3w regiment. Mock treated (vehicle) control group was administered IP with the same volume and regiment as a treatment group. Administration was performed at a constant volume dosage based on individual body weight. The severity of CIA was monitored daily. The CIA scoring is on the scale of 0 to 16 (0 to 4 for each paw, adding the scores for all 4 paws). On day 43 (24 hours post last dose administration) all paws thickness was measured and mice were euthanized. All limbs from each mouse were placed in individual labeled tubes, fixed in 4% buffered formalin, paraffin embedded and sectioned. Histological score was assessed using hematoxylin and eosin (H&E) stained sections. Joints were scored for inflammation, cartilage damage, pannus formation, and bone resorption on a scale of 0 to 3 for each readout. Two-way ANOVA statistical analysis was performed."}, "[4]": {"tested_on": "B cells", "experiment": "B-lymphocyte adhesion and transmigration, MesenFlow assay", "assay_type": "cell-based", "conditions": "30 μM", "description": "Flow assays were conducted as described in a previous study (Bradfield, P. F., et al., JAM-C regulates unidirectional monocyte transendothelial migration in inflammation. Blood, 2007. 110(7): p. 2545-55). HUVECs were cultured at 1×10^5 cells/slide on Ibidi 6-chamber slides (80606; Ibidi) before treatment with TNFα (500 U/mL) for 6-10 hours. An individual chamber outlet was then attached to a calibrated pump (74 900; Cole Partner, Vernon Hills, IL) and flow was generated by perfusing wash buffer (M199 with 0.15% BSA) or a monocyte suspension (2.5×10^6 cells/mL) over the HUVEC monolayer. The flow rate was representative of shear rates in small venules (0.05 Pa). Observations made using phase-contrast microscopy (Model: Axiovert 100; Objective: 20×/0.3 NA air; Carl Zeiss) were recorded using a high-resolution camera (D70; Nikon, Zurich, Switzerland). Individual images were recorded every 30 seconds with Nikon capture software (v4.2) and compiled into movie sequences using Adobe Photoshop (CS6) and Image J (v1.5d), allowing analysis of individual monocytes over large areas. The tested compounds, e.g. compounds of the general Formula (I), were maintained at the specified concentration in all wash buffers throughout the course of the experiment. The compounds were preincubated separately on both HUVECs and monocytes 15 minutes prior to flow co-culture. […]"}}}
{"smiles": "COC(=O)c1ccc(COc2c(C=C3C(=O)NC(=O)NC3=O)cccc2C(C)(C)C)cc1", "note": "[Formula 2, methyl 4-((2-(tert-butyl)-6-((2,4,6-trioxotetrahydropyrimidin-5(2H)-ylidene)methyl)phenoxy)methyl) benzoate]", "values": [{"measurement": "amount of neutrophils and monocytes", "setting": "[1]; 12.5 mg/kg IP, twice", "value": "not affected"}, {"measurement": "increase of the amount of dendritic cells in the peritoneal liquid", "setting": "[1]; 12.5 mg/kg IP, twice", "value": 2.5, "unit": "fold"}, {"measurement": "reduction of the amount of lymphocytes in the peritoneal liquid", "setting": "[1]; 12.5 mg/kg IP, twice", "value": 85, "unit": "%"}, {"measurement": "total amount of leukocytes in the abdominal liquid", "setting": "[1]; 12.5 mg/kg IP, twice", "value": "not affected"}, {"measurement": "White blood cell (WBC) counts of peritoneal fluids", "setting": "[1]; FIG. 8 legend: 30 μM injected once on the third day, n=6", "value": "reduced"}, {"measurement": "body weight", "setting": "[2]; by day 20", "value": "body weight recovery to that recorded on the onset of the disease"}, {"measurement": "paralysis score, decrease", "setting": "[2]; by day 20", "value": "from 2 to 1.5"}, {"measurement": "body weight difference between treated and non-treated group", "setting": "[2]; end of the experiment, average", "value": "approximately 4 g"}, {"measurement": "paralysis score", "setting": "[2]; starting from day 10", "value": "stable"}, {"measurement": "Histological score of joints", "setting": "[3]; 15 mg/kg IP q3w", "value": "significantly reduced"}, {"measurement": "fore and hind limb thickness", "setting": "[3]; 15 mg/kg IP q3w, day 43", "value": "significantly reduced"}, {"measurement": "CIA score", "setting": "[3]; FIG. 23 legend: 15 mg/kg SC", "value": "therapeutic effect"}, {"measurement": "histological evaluation of talus and calcaneum joint sections", "setting": "[3]; representative sections, treated mouse (FIG. 25B)", "value": "No cartilage and bone and erosion and profuse infiltration of inflammatory cells are present"}, {"measurement": "B cell adhesion and transmigration", "setting": "[4]", "value": "dramatic blocking effect"}]}
